This note sets out measurements from PMC5622107, “Small molecule inhibition of cGAS reduces interferon expression in primary macrophages from autoimmune mice” (Nature Communications, 2017).

Entries after “also recorded” stand apart in the source; their conditions may differ. Like-named read-outs stand apart in the source and are kept apart here.

A word on the IC50: it is the concentration needed to halve the response being measured. In general, inhibition refers to the percentage by which the read-out fell short of the control. As usually defined, the Kd is the constant that tells how readily two partners part at equilibrium.

One assay deals with T1, mouse cGAS (Mus musculus, UniProt Q8C6L5).
T1 construct: recombinant full-length mouse cGAS in reaction buffer; His6-SUMO (N, cleaved yes); made in house; host or cells: E. coli BL21(DE3) RIL
T1 sequence (Q8C6L5 whole entry): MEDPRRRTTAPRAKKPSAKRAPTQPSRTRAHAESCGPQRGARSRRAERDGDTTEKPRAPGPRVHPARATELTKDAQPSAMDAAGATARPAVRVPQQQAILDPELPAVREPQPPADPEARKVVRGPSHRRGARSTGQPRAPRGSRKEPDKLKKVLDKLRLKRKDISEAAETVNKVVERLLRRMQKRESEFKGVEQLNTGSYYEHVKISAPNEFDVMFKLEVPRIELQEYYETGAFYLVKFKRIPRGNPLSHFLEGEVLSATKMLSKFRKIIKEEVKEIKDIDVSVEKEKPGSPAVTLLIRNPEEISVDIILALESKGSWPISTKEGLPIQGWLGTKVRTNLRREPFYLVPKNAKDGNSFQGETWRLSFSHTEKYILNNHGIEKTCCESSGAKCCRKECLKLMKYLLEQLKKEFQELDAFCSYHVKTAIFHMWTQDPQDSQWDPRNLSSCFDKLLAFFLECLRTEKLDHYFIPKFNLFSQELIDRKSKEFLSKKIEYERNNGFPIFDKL
The experiment in a line: RapidFire mass spectrometry (RF-MS) cGAS enzymatic assay, cGAMP product formation. In kind it is biochemical. The settings on record: for IC50: read-out: IC50. In short, it runs like this: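 Reactions were stopped with 0.5% formic acid, then ATP, GTP and cGAMP were separated by solid-phase extraction on graphitic carbon and detected by negative-ion MS. Product formation (%) = AUCcGAMP×100/(AUCcGAMP + ½AUCATP + ½AUCGTP). Percent inhibition was normalized to positive and negative controls.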

The target of the next assay is T2, apo-cGAS (Mus musculus, UniProt Q8C6L5).
T2 construct: full-length (for high-throughput screening) and residues 147–507 (for structural study) of cGAS; His6-SUMO (N, cleaved yes); made in house; host or cells: E. coli BL21(DE3) RIL
T2 sequence (Q8C6L5 147-507): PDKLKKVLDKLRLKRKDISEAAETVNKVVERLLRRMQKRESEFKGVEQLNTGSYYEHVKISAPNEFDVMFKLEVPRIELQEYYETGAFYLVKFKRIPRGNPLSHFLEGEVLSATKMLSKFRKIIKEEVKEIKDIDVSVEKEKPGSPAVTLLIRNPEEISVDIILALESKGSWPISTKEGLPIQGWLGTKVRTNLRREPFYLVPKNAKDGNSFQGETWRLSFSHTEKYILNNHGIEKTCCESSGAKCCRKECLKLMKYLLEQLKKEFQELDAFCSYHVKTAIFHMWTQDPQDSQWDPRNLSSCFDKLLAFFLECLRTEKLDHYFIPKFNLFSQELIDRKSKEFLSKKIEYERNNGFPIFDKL
The experiment in a line: Isothermal titration calorimetry, cGAS in absence of dsDNA. Format: binding. Here is the method: ITC measurements were performed at 25 °C using a MicroCal auto-iTC200 calorimeter (MicroCal, LLC). Purified truncated mouse cGAS was dialyzed against 40 mM HEPES buffer (pH 7.5) and 300 mM NaCl for 24 h at 4 °C. Dialysis led to some precipitation, which were removed through centrifugation followed by collection of the supernatant. The concentration of the protein in supernatant was measured using Pierce® BCA protein assay. The protein was flash frozen in liquid N2 and stored at −80 °C. For the ITC assay, the dialyzed protein was prediluted to 20 µM in the dialysis buffer and diluted to a final concentration of 10 µM in a final buffer containing 40 mM HEPES, 1% DMSO, 150 mM NaCl, 0.01% Tween-20 and + /− dsDNA 10 µM and + /− ATP or GTP 1 mM. Then, 2 μl RU.365 100 µM, dissolved in the buffer aforementioned, were injected into 0.2 ml of protein in the chamber every 150 s. Data for raw ITC and thermodynamic curves, each from one experiment, were downloaded after analysis using Affinimeter software and plotted using GraphPad Prism (7.01). The software calculates error bars as an indication of the contribution of the raw data noise that is determined from the integral of the standard deviation of the baseline during the injection.

The subject of assay [1] is RAW macrophage cells stimulated with 5′ppp-HP20 RNA, Pam3CSK4, poly(I:C), LPS or recombinant Ifnb. The experiment in a line: Selectivity: RAW macrophages stimulated with non-DNA immunogenic ligands (luciferase reporter or Il-6 qRT-PCR). In kind it is cell-based, mouse. Here is the method:
The sequence and annealing conditions of the dsDNA used is described above. Typically, 0.4 µg or 0.6 µg of dsDNA was used to stimulate RAW-Lucia ISG-KO-TREX1/ISG-KO-cGAS or RAW-Lucia ISG cells, respectively, which equated to 90% of maximal luciferase activity observed. dsDNA stimulation of RAW macrophages and subsequent luciferase measurements were performed with or without the addition of small molecules at indicated concentrations in each figure, or with DMSO as vehicle control. For the dose curve experiments, serial dilutions of inhibitors were applied to 6.7 × 10^5 cells, plated in 24-well dishes, and co-stimulated with 0.4 µg of dsDNA. In subsequent experiments using inhibitors in RAW cells, the small molecules were used at concentrations representing the derived EC75 values, while co-stimulated with one of the following: 0.4 µg dsDNA, 50 nM 5′ppp-HP20 hairpin RNA (a kind gift from Dr Anna Pyle, Yale University; sequence located in Supplementary Table 5), 10 µM cGAMP, or 100 U ml^−1 murine recombinant Ifnb (R&D Systems). dsDNA was transfected using Lipofectamine LTX. 5′ppp-HP20 RNA was transfected using Lipofectamine 2000. Cells were harvested 24 h post-transfection, washed with PBS, and lysed in 1× Luciferase Cell Lysis Buffer (Pierce).
The minimum numbers of biological and technical replicates for the luciferase assays were two and three, respectively. Analysis of luminescence values were evaluated for outliers (one standard deviation above and below the mean) for each biological replicate, and the resulting means were used to generate graphs in GraphPad Prism (v. 7.0c); where applicable, an unpaired t-test with Welch’s correction was used to compare the results of each individual compound to dsDNA or other stimulant. The experimental variances observed within control samples (untreated or vehicle) and treated samples were similar.
The small molecules were used at concentrations representing the EC75 values and were co-stimulated with either 200 ng Pam3CSK4 (Invivogen), 25 µg poly(I:C) or 100 ng lipopolysaccharide (Sigma-Aldrich) at the cell counts and conditions previously described for the cellular luciferase assays. Cells were harvested 24 h post-transfection, washed with PBS, and RNA was extracted using Trizol (Ambion) and chloroform (Sigma-Aldrich). In all, 1–2 µg of total RNA was reverse-transcribed using random hex primers and SuperScript III (Life Technologies) into cDNA. […] The expression of mRNAs […] murine Actb1 and Il-6 were measured (see Supplementary Table 5 for primer sequences used). Target C T values were normalized to Actb1 C T values and used to calculate ΔC T. mRNA expression of target genes were then calculated using the ΔΔC T method (2^ΔΔCT). Expression values were analyzed as described in the method for cellular luciferase assays.

Where [2] appears, read: Supplementary Table 3, analogs more potent than RU166365.

For the molecule `Cc1nn(-c2nc3ccccc3[nH]2)c(O)c1C1OC(=O)c2ccccc21` (centres unmarked) [RU166365], the half-inhibitory concentration (IC50) at mouse cGAS (Supplementary Table 2, batch of compounds stored in the screening library) turned out to be 520 nM. Further, the inhibition at 12.5 µM on mouse cGAS (Supplementary Table 2, compound 12.5 µM, read-out: % inhibition at 12.5 µM) is 99%. On mouse cGAS (setting [2]), the IC50 is 1890 nM. Also, at apo-cGAS, binding was characterised by a dissociation constant (Kd) of 98.5 nM, the “T*ΔS” value is -1.511 kcal/mol, the rM is recorded as 0.9384 and the ΔG is -9.559 kcal/mol. For the same molecule, on apo-cGAS, the ΔH was -11.07 kcal/mol. The “Il-6 mRNA expression” value in assay [1] (cells activated by Pam3CSK4, poly(I:C), or LPS, qRT-PCR) is given as “increased Il-6 messenger RNA (mRNA) expression”.

Regarding `Cc1nn(-c2nc3ccc(Cl)c(Cl)c3[nH]2)c(O)c1C1OC(=O)c2ccccc21` (centres unmarked) [RU320521, 3-[1-(6,7-dichloro-1H-benzimidazol-2-yl)-5-hydroxy-3-methyl-pyrazol-4-yl]-3H-isobenzofuran-1-one], at mouse cGAS (setting [2]), the IC50 is 110 nM. Besides, on mouse cGAS (compared with RU.365), the “effect of structural modification on cGAS inhibitory potency” value was “increased inhibitory potency”. Besides, the improvement in potency at mouse cGAS (relative to RU.365) was determined as 17 fold. In assay [1] (JAK/STAT signaling, luciferase reporter), the “inhibition of cells stimulated with recombinant Ifnb” value is reported as “did not inhibit”. Moreover, the “suppression of activation by immunogenic stimuli other than dsDNA” value in assay [1] (compound at EC75, 5′ppp-HP20 RNA, Pam3CSK4, poly(I:C), LPS, Ifnb, listed as RU.521) was “unable to potently suppress activation; also recorded: little to no inhibitory effects”.
